# Tests used:
# [1] = human, in vivo; cited from earlier work
# [2] = cited from earlier work
# [3] = cited from earlier work; remark: listed apart in the source
# TSECs [4] = test: Busulfan-induced death of TSECs (trypan blue cell viability); format: cell-based, human
# Experimental: (Cheuk D K et al, Bone Marrow transplant 40: 935-944, 2007). We tested, if the toxicity of busulfan was amenable to in vitro studies on TSECs. Accordingly, we defined the concentration-response curve for busulfan-induced death of TSECs. In analogy to Raimer J et al (EurJClinPharmacol 68: 932-935, 2012), who had used ECV304 cells, we plated TSECs on collagen-coated plastic dishes (5×10^3 cells/24-well plate). After 24 hours, busulfan was added at increasing concentrations (10 μM-1 mM). The concentration range was based on reports in the literature and on the serum levels observed in patients undergoing myeloablative chemotherapy. Cell viability was assessed after 24, 48 and 72 h.
# TSECs were plated on collagen-coated plastic dishes (5*10^3 cells/24-well plate). After 24 hours busulfan, a cell cycle non-specific alkylating antineoplastic agent, in the class of alkyl sulfonates with a chemical designation is 1,4-butanediol dimethanesulfonate, used as chemotherapeutic agent and known to induce VOD, was added at increasing concentrations (10 μM-1 mM). The concentration range is based on reports in the literature and on the serum levels observed in patients undergoing myeloablative chemotherapy. Cell viability was assessed after 24, 48 and 72 hours. For this purpose cells were washed twice with PBS, trypsinized, mixed with trypan blue (1:1 volumes) and counted using a hemocytometer. […] The data (means±standard deviation) shown represent cell death after for 48 hours.
# TSECs [5] = test: Yield of RNA/mRNA from TSECs after busulfan and treprostinil; format: cell-based, human
# Experimental: In EC340 cells, concentrations as high as 300 μM were tolerated for 96h and allowed for investigating target gene expression and regulation upon treatment with busulfan. This concentration was not compatible with the extraction of mRNA in TSECs: the amount, quality and stability of mRNA were affected in a dose- and time-dependent manner (FIG. 5 and data not shown). […] Based on the time course of gene regulation in EC340 cells, we tested a treatment duration between of a minimum of 12h and a maximum of 96h (data not shown).
# Cells were either treated with 125 μM, 250 μM or 300 μM BU, the combination thereof with treprostinil (10 μM), or treprostinil (10 μM) alone, or kept in standard medium [Endothelial Cell Medium, ECM Sciencell™, USA, TSECs containing 5% fetal bovine serum, 1% endothelial cell growth supplement (ECGS) and 1% penicillin/streptomycin at 37° C. and 5% CO2]. a) Total RNA was extracted by Trizol® (lifetechnologies) according to the manufacturer's protocol. RNA concentration (ng/μl) and purity was determined with Nanodrop 2000®. If equal numbers of cells (1.6×10^5) were seeded per well, treatment with 250 and 300 μM BU induced cell death in as much rendering reproducible and valid yields of absolute RNA content impossible, already after 48h of treatment. b) The absolute yield in RNA preparations (μg/μl) was compared between cells, which had been incubated in standard medium (untreated), and cells, which had been treated with BU (125 or 250 μM BU) plus treprostinil (10 μM Trep), or treprostinil alone.
# [6] = test system: plasminogen-activator inhibitor-1 (PAI-1); test: qPCR of candidate target gene mRNA in TSECs: PAI-1; format: cell-based, human
# Experimental: (§1) After pretreatment of TESCs with 10 μM treprostinil for 1 h, cells were co-incubated with 10 μM treprostinil and 125 μM BU for 24 h. Total RNA was extracted by the use of PARIS Kit (life technologies). cDNA synthesis was performed by High-Capacity Reverse Transcription Kit (applied biosystems); the resulting cDNA (equivalent to 50 ng RNA/reaction) was analyzed via qPCR (StepOnePlus real-time PCR System®, Applied Biosystems). 18s rRNA was used as a reference gene.
# (§2) Based on preliminary experiments we identified plasminogen-activator inhibitor-1 (PAI-1), tissue factor (TF), tissue factor pathway inhibitor (TFPI) and thrombomodulin (TM) as suitable genes to study the potential of treprostinil to counteract busulfan-induced effects in TSECs. We also tested if busulfan-mediated effects are counteracted by 10 μM treprostinil. A total of 1.5×10^5 TESCs were plated in 6 well plates. As soon as 90% confluence was reached, cells were pretreated with treprostinil for 1 h, then cells were incubated for 24h in standard culture medium containing both BU and treprostinil. Thereafter, cells were washed and mRNA was prepared. Treprostinil counteracted the busulfan-induced increased expression of procoagulatory factors such as PAI-1 and TF (data not shown). […]
# EC340 cells = conditions: 96h; cited from earlier work
# thrombomodulin (TM) = test: qPCR of candidate target gene mRNA in TSECs: TM; format: cell-based, human; conditions: data not shown
# Experimental: as §1, §2
# tissue factor (TF) = test: qPCR of candidate target gene mRNA in TSECs: TF; format: cell-based, human
# Experimental: as §1, §2
# [7] = test system: tissue factor pathway inhibitor (TFPI); test: qPCR of candidate target gene mRNA in TSECs: TFPI; format: cell-based, human
# Experimental: as §1
# Based on preliminary experiments we identified plasminogen-activator inhibitor-1 (PAI-1), tissue factor (TF), tissue factor pathway inhibitor (TFPI) and thrombomodulin (TM) as suitable genes to study the potential of treprostinil to counteract busulfan-induced effects in TSECs. We also tested if busulfan-mediated effects are counteracted by 10 μM treprostinil. A total of 1.5×10^5 TESCs were plated in 6 well plates. As soon as 90% confluence was reached, cells were pretreated with treprostinil for 1 h, then cells were incubated for 24h in standard culture medium containing both BU and treprostinil. Thereafter, cells were washed and mRNA was prepared. Treprostinil counteracted the busulfan-induced increased expression of procoagulatory factors such as PAI-1 and TF (data not shown). […] These observations justify the use of TSECs as an in vitro model system to study surrogate parameters, which are predictive of an increased risk of VOD in vivo.
# Treatment of TESCs was performed as indicated in the legend to FIG. 6. Treprostinil-treatment was initiated 1 h prior to addition of busulfan. Cells were collected 24 h later.
# EP3-receptors = target: T1, EP3-receptors (Homo sapiens, UniProt P43115); conditions: inhibitory Gi-coupled EP3-receptors; cited from earlier work
# T1 sequence (P43115 1-390): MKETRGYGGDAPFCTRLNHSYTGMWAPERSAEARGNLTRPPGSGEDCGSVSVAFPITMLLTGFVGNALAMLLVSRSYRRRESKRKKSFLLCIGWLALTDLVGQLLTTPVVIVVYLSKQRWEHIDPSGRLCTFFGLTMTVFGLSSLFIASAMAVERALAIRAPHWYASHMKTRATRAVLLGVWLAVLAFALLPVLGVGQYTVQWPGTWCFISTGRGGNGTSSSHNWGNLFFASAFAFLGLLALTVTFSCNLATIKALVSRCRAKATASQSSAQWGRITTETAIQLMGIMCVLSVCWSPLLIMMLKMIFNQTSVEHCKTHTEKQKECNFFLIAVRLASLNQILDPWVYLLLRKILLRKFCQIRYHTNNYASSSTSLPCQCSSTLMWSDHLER
# TSECs [8] = test: Attenuation by treprostinil of busulfan-induced cell death in TSECs; format: cell-based, human
# Experimental: TSECs were pretreated with treprostinil (10 μM) for 1 h and examined, if this protected them against busulfan-induced cell death by challenging them—in the continuous presence of treprostinil—with 125 and 250 μM and 500 μM Busulfan (BU). After 24 h, cell viability was determined by counting detached cells in a haemocytometer and determining the number of trypan blue-positive (=dead) and trypan-blue excluding (=live) cells.
# TSECs were plated on collagen-coated plastic dishes (5*10^3 cells/24-well plate). After 24 hours treprostinil was added at a concentration of […]. One hour later, busulfan was added at increasing concentrations. Cell viability was assessed after 48 hours.
# We examined the concentration range, in which treprostinil protected TSECs against busulfan-induced cell death. TSECs were plated on collagen-coated plastic dishes and after 24 h treprostinil was added at concentrations of 5, 10 and 20 pM. One hour later, busulfan was added at concentrations of 125 and 250 μM. Cell viability was assessed after 48 h. […] The data were analyzed using a 2-way ANOVA.
# TSECs were plated on collagen-coated plastic dishes (5*10^3 cells/24-well plate). After 24 hours treprostinil was added at concentrations of 5, 10 and 20 pM. One hour later, busulfan was added at concentration of 125 and 250 μM. Cell viability was assessed after 48 hours. Even low concentrations of treprostinil (5 μM) attenuated busulfan induced cell death. […] The data were analyzed by two-way ANOVA. A Bonferroni post hoc test was conducted to test for differences between individual treatment groups.
# EP4-receptors = EP4-receptors (Homo sapiens, UniProt P35408); conditions: cited from earlier work
# EP2-receptors = EP2-receptors (Homo sapiens, UniProt P43116); conditions: cited from earlier work
# [9] = test system: intracellular cAMP levels in TSECs; test: cAMP accumulation in TSECs; format: cell-based, human; conditions: 1 h
# Experimental: It is desirable to understand the mechanisms, which allow treprostinil to modulate busulfan-induced gene expression, because this allows for searching for additional target genes. It was assumed that the action of treprostinil is mediated by an increased accumulation of cAMP. […] This was seen both, in the presence of 30 μM forskolin ([…], left hand panel) and if the concentration of forskolin was titrated between 1 and 30 μM (FIG. 6, middle and right hand panel). It was also seen regardless of whether [^3H]cAMP was low (FIG. 6, middle panel) or high (FIG. 6, right hand panel).
# Control cells were incubated in standard medium. For comparison, cAMP accumulation was also assessed after incubation with dmPGE2. […] In the third experiment, the response was higher, presumably due to more extensive labelling of the adenine nucleotide pool. However, in none of the experiments tested, treprostinil alone sufficed to increase intracellular cAMP levels over that seen in untreated control cells.
# [10] = 10 μM treprostinil 1 h pretreatment, then with 125 μM BU for 24 h, data not shown
# EP4-receptors, sequence (P35408 whole entry): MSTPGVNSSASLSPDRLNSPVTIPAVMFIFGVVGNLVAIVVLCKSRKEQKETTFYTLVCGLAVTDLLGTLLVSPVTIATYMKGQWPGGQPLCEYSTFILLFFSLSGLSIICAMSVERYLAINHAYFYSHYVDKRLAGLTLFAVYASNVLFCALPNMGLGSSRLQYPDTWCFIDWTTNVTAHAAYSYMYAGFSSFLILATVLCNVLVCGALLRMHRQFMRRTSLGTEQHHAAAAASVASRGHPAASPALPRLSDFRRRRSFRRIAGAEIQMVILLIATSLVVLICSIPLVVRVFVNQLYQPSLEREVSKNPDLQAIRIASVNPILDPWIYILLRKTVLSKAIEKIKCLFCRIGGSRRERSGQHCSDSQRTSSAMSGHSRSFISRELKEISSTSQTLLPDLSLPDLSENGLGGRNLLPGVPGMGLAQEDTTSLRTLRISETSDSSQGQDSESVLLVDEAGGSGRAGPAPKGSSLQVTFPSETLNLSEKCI
# EP2-receptors, sequence (P43116 whole entry): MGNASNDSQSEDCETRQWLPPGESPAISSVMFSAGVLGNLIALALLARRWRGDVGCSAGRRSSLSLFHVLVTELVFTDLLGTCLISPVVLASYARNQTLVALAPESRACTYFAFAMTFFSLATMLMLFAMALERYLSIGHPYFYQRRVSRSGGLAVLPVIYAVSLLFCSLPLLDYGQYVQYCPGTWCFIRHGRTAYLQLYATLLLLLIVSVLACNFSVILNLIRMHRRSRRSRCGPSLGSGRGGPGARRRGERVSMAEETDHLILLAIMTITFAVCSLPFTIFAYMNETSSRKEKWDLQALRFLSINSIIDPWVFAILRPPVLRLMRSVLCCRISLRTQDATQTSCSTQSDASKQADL
smiles,measurement,setting,value
CCCCC[C@H](O)/C=C/[C@@H]1[C@H]2C/C(=C/CCCC(=O)O)O[C@H]2C[C@H]1O [Flolan],maximum tolerable dosage,[1],5 to 8 ng/kg/day
same,serum half-life,[2],very short
"CCCCC[C@H](O)/C=C/[C@H]1[C@H](O)CC(=O)[C@@H]1CCCCCCC(=O)O [PGE1, prostaglandin E1]",advantage in VOD,"[3]; PGE1 alone (Senzolo M. et al., 2007)",failed to show any advantage
"CS(=O)(=O)OCCCCOS(C)(=O)=O [busulfan, 1,4-butanediol dimethanesulfonate]","cell death of TSECs, concentration dependence","TSECs [4]; busulfan 10 μM-1 mM, 48 hours, absence of hepatocytes (FIG. 2)",induced cell death in a concentration dependent manner
same,cell death of TSECs,"TSECs [4]; busulfan 10 μM-1 mM, after 24 h",No obvious cell death
same,cell death of TSECs,"TSECs [4]; busulfan, also at lower concentrations, after 72 h",almost complete cell death
same,highest busulfan concentration allowing harvest of mRNA of adequate quality for qPCR,TSECs [5]; 48 h pretreatment of TSECs,125 µM
same,yield of RNA compared to untreated cells (100%),TSECs [5]; busulfan 125 μM for 48h,85%
same,yield of RNA compared to untreated cells (100%),TSECs [5]; busulfan 250 μM for 48h,74%
same,PAI-1 expression,"[6]; busulfan 125 μM, 24 h",induces the expression
same,tolerated concentration,EC340 cells,≤ 300 µM
same,thrombomodulin (TM) expression,"thrombomodulin (TM); busulfan 125 μM, 24 h",decreased the expression
same,TF expression,"tissue factor (TF); busulfan 125 μM, 24 h",induces the expression
same,expression of TFPI,[7]; busulfan,induced
CCCCC(C)(C)[C@H](O)/C=C/[C@H]1[C@H](O)CC(=O)[C@@H]1C/C=C\CCCC(=O)O [dimethyl-PGE2],agonism at EP3-receptors,EP3-receptors,full agonist
CCCCC[C@H](O)/C=C/[C@H]1[C@H](O)CC(=O)[C@@H]1C/C=C\CCCC(=O)O [prostaglandin E2],incidence of VOD,"[3]; in combination with heparin (Senzolo M. et al., 2007)",lower incidence of VOD
"CCCCC[C@H](O)CC[C@@H]1[C@H]2Cc3cccc(OCC(=O)[O-])c3C[C@H]2C[C@H]1O.[Na+] [treprostinil, (1R,2R,3aS,9aS)-[[2,3,3a,4,9,9a-hexahydro-2-hydroxy-1-[(3S)-3-hydroxyoctyl]-1H-benz[f]inden-5-yl]oxy]acetic acid monosodium salt]",agonism at EP3-receptors,EP3-receptors,low affinity agonist
same,loss in RNA yield,"TSECs [5]; busulfan plus 10 μM treprostinil, pretreated 1 hour and co-incubated 24 h",11%
same,RNA content compared to control cells,"TSECs [5]; treprostinil alone (10 μM), 5 independent RNA preparations",111%
same,concentration close to saturation of protection against busulfan-induced cell death,"TSECs [8]; busulfan 125 and 250 μM, 48 h",10 µM
same,cell viability,"TSECs [8]; treprostinil 10 pM added 1 hour before busulfan 125 and 250 μM, 48 hours",increased viability
same,effect on busulfan-induced cell death,"TSECs [8]; treprostinil 5 μM, busulfan 125 and 250 μM, 48 h",attenuated busulfan-induced cell death
same,effect on BU-induced toxicity (cell viability),"TSECs [8]; treprostinil 10 μM, 1 h pretreatment, busulfan 125, 250 and 500 μM, after 24 h, three independent experiments",attenuated BU-induced toxicity
same,beneficial effect on busulfan induced cell death at higher concentrations,"TSECs [8]; treprostinil above 5 μM (10 and 20), busulfan 125 and 250 μM, 48 hours",did not increase at higher concentrations
same,effect on busulfan-induced increased expression of PAI-1,[6]; [10],counteracted
same,effect on busulfan-induced decrease of TM expression,"thrombomodulin (TM); 10 μM treprostinil 1 h pretreatment, then with 125 μM BU for 24 h",mitigated the effect of busulfan
same,effect on busulfan-induced increased expression of TF,tissue factor (TF); [10],counteracted
same,expression of TFPI,[7]; treprostinil,induced
same,"regulation of expression of mRNA of TFPI, concentration dependence",[7]; treprostinil in TESCs,concentration-dependent manner
same,stimulation of EP4-receptors,EP4-receptors,selectively stimulates
same,stimulation of EP2-receptors,EP2-receptors,selectively stimulates
same,intracellular cAMP levels,[9]; sole addition of treprostinil,did not suffice to increase intracellular cAMP levels
same,intracellular cAMP levels,"[9]; treprostinil 10 μM, cells sensitized with forskolin (1 to 30 μM)",further increased intracellular cAMP levels
